Patent US20230086718A1, “METHOD FOR PREDICTING THE SURVIVAL TIME OF A PATIENT SUFFERING FROM A CANCER” (INSERM (INSTITUT NATIONAL DE LA SANTÉ ET DE LA RECHERCHE …, priority 2020, published 2023)

How the values were obtained:
Assay type in all cases: cell-based, human
Vδ1 T cells [1] = experiment: Adenosine measurement by MALDI TOF spectrometry in supernatants of amplified Vδ1 T cells
Description: Amplified Vδ1 T cells (2.106 cells/mL) were washed in cold PBS and resuspended in PBS supplemented with 50 mM AMP (Sigma) at 4° C. for 30 min. After centrifugation, adenosine levels in supernatants were analyzed by MALDI-TOF mass spectrometry, as previously described by Bastid et al..

Vδ1 T cells [2] = experiment: ELISA of IL-10, IL-8 and TGF-β in supernatants of expanded Vδ1 T cells
Excerpt: Phytohemagglutinin (PHA) was purchased from Thermofisher Scientific. The anti-human CD3 (UCHT1), and the anti-human TCR γδ and TCR Vδ1 antibodies were purchased from Beckman Coulter (Brea, Calif., USA). Anti-human CD3, CD73, CD39 and their isotypically matched control mouse antibodies were from BD Biosciences (San Jose, Calif., USA). The anti-human TCR γδ antibody used for IHC was from Santa Cruz Biotechnology (USA). Recombinant human IL-2 (rhIL-2) was from Novartis Pharma (Rueil-Malmaison, France), and recombinant IL-21 (rhIL-21) was from Miltenyi Biotec (Paris, France). ELISA kits for detecting human IL-10 and IL-8 were from BD Biosciences (San Jose, Calif., USA). ELISA kit for the detection of human TGFβ was from RD system.
Expanded Vδ1 T cells (2.106 cells/mL) were incubated in fresh medium without cytokines in wells coated or not with the anti-CD3 antibody (UCHT1) for 6 h, and then supernatants were collected. IL-8 and IL-10 protein levels were assessed using the relevant BD Biosciences Opteia Kits. The mean values of duplicate samples from the same experiment are shown for each data point with their standard error of the mean (SEM).

Vδ1 T cells [3] = experiment: Flow cytometry of CD39, CD73 and PD-L1 expression in expanded Vδ1 T cells
Excerpt: Peripheral Blood Mononuclear Cells (PBMCs) were obtained by density centrifugation on Ficoll-Paque (Eurobio, Les Ulis, France) of blood samples from healthy donors and breast cancer patients. Healthy donor samples were provided by the Etablissement Français du Sang (Convention EFS-OCPM no 21PLER2018-0069) and the blood of patients was provided by the ICM (BCB-EC-1-FR-ICM-ENR-269-004-CRB). […] Vδ1 T cells were isolated from PBMCs by a positive immunoselection using the anti-human Vδ1 antibody (Beckman Coulter) and anti-IgG1 magnetic beads (Miltenyi Biotec). Briefly, 300.106 cells were incubated with 10 μg of anti-human Vδ1 antibody in 5 ml of PBS supplemented with 2% SVF and EDTA (2 mM) for 1 hour at 4° C., then washed and incubated with 200 μl of anti-IgG1 magnetic beads for 1 hour at 4° C., then washed and collected on column according to the manufacturer's instructions (Miltenyi Biotec). Reproducible high purity of Vδ1 T cells (>90%) was obtained with this protocol. Purified Vδ1 T cells (2.106 cells/ml) were stimulated with 2 μg/mL of PHA in the presence of syngeneic macrophages isolated using their adherence properties. Briefly, PBMC (2.106/ml) were incubated in RPMI 10% FCS for 1 hour at 37° C. in 96 well-plates to allow to monocytes to adhere and differentiate in macrophages. Non-adherent cells were removed by 2 washes with RPMI medium. Purified Vδ1 T cells were added to macrophages, activated by PHA and expanded in the complete medium containing RPMI 1640/Glutamax medium supplemented with 5% human AB serum and 5% fetal calf serum (FCS) in the presence of rhIL-2 (control) or rhIL-2+rhIL-21 (experimental condition) at 37° C. in humidified atmosphere with 5% CO2. Every 2 days, fresh medium is added and after 1 week Vδ1 T cells were separated from adherent macrophages and amplified in the complete medium with cytokines for 2 more weeks before phenotyping and analysis.
Cells were first incubated at 4° C. for 30 min with Fc-block solution to minimize non-specific binding of antibodies to Fc receptors, then incubated with a dye cell viability and the panel of antibodies in the staining buffer (PBS-2% FCS) at 4° C. for 30 min, cells were then washed and fixed in 1% paraformaldehyde. Data were acquired with a Cytoflex cytometer (Beckman-Coulter) and analyzed with the FlowJo software.
Peripheral Blood Mononuclear Cells (PBMCs) were obtained by density centrifugation on Ficoll-Paque (Eurobio, Les Ulis, France) of blood samples from healthy donors and breast cancer patients. Healthy donor samples were provided by the Etablissement Français du Sang and the blood of patients was provided by the Institut regional du Cancer de Montpellier (ICM). […] Vδ1 T cells were isolated from PBMCs by a positive immunoselection using the anti-human Vδ1 antibody (Beckman Coulter) and anti-IgG1 magnetic beads (Miltenyi Biotec). Briefly, 300.106 cells were incubated with 10 μg of anti-human Vδ1 antibody in 5 ml of PBS supplemented with 2% SVF and EDTA (2 mM) for 1 hour at 4° C., then washed and incubated with 200 μl of anti-IgG1 magnetic beads for 1 hour at 4° C., then washed and collected on column according to the manufacturer's instructions (Miltenyi Biotec). Reproducible high purity of Vδ1 T cells (>90%) was obtained with this protocol. Purified Vδ1 T cells (2.106 cells/ml) were stimulated with 2 μg/mL of PHA in the presence of syngeneic macrophages isolated using their adherence properties. […]

Molecule | adenosine production by control and IL-21-amplified Vδ1 T cells (Vδ1 T cells [1]; in the presence of the CD73 inhibitor) | IL-10 production after TCR/CD3 activation (Vδ1 T cells [2]; IL-21-amplified CD73+ Vδ1 T cells, not in the CD73− cells) | IL-10 in supernatants, absence of activation (Vδ1 T cells [2]; IL-21-amplified Vδ1 T cells, CD73+ or CD73−, not detected in control cells) | IL-8 production (Vδ1 T cells [2]; activated IL-21-amplified CD73+ Vδ1 T cells only) | TGF-β secretion (Vδ1 T cells [2]; any of the tested conditions) | percentage of CD39-positive cells (Vδ1 T cells [3]; Vδ1 T cells from healthy donors expanded with rhIL-2+rhIL-21 vs rhIL-2 only (control)) | fraction of Vδ1 T cells expressing PD-L1 (Vδ1 T cells [3]; cells exposed to rhIL-21, about 50% in the control condition) [%] | fraction of CD39/CD73-positive Vδ1 T cells (Vδ1 T cells [3]; expanded with rhIL-2+rhIL-21, vs 18% in control cells) [%] | fraction of CD73-positive Vδ1 T cells (Vδ1 T cells [3]; expanded with rhIL-2+rhIL-21, vs 20% in the control condition (rhIL-2 only)) [%] | percentage of PD-L1+ in CD73-positive Vδ1 T cells (Vδ1 T cells [3]; exposure to rhIL-21 vs control, around 60%) | adenosine generated in the presence of AMP (Vδ1 T cells [1]; IL-21-amplified Vδ1 T cells, control cells (only rhIL-2) ~0.4 μM) [µM]
Nc1ncnc2c1ncn2[C@@H]1O[C@H](COP(=O)([O-])CP(=O)(O)O)[C@@H](O)[C@H]1O.[Na+] [APCP, adenosine 5′-(α,β-methylene)-diphosphate sodium salt, reference compound] | strongly impaired | – | – | – | – | – | – | – | – | – | –
rhIL-21: recombinant IL-21 (rhIL-21) from Miltenyi Biotec, cytokine added with rhIL-2 to expand Vδ1 T cells | – | strongly increased | basal level | highly present | did not detect | did not modify | 65 | 40 | 50 | did not modify | ~1.4
